According to ChEMBL document CHEMBL4351016 (Eur J Med Chem, 2019):
Active and inactive are the calls of the source. The rule behind the calls is not given here.

Legend:
CWR22R [1] = assay: Antiproliferative activity against AR-positive human 22Rv1 cells harboring ARE14 construct assessed as growth inhibition after 72 hrs by resazurin dye based fluorescence assay; assay type: functional; settings: 22Rv1, 72 h
LNCaP C4-2 [2] = assay: Antiproliferative activity against AR-positive human C4-2 cells assessed as growth inhibition after 72 hrs by resazurin dye based fluorescence assay; assay type: functional; settings: LNCaP C4-2, 72 h
VCaP [3] = assay: Antiproliferative activity against AR-positive human VCaP cells assessed as growth inhibition after 72 hrs by resazurin dye based fluorescence assay; assay type: functional
PC-3 = assay: Antiproliferative activity against AR-negative human PC3 cells assessed as growth inhibition after 72 hrs by resazurin dye based fluorescence assay; assay type: functional; settings: PC-3, 72 h
LNCaP C4-2 [4] = assay: Antiproliferative activity against AR-positive human C4-2 cells assessed as cell viability at 40 uM after 72 hrs by resazurin dye based fluorescence assay; assay type: functional; settings: LNCaP C4-2, 72 h, read-out: Activity
VCaP [5] = assay: Antiproliferative activity against AR-positive human VCaP cells assessed as cell viability at 40 uM after 72 hrs by resazurin dye based fluorescence assay; assay type: functional; settings: read-out: Activity
[6] = molecular target: T1, Androgen receptor (Homo sapiens) (UniProt P10275); assay: Inhibition of AR transcriptional activity in AR-positive human 22Rv1 cells harboring ARE14 construct assessed as downregulation of NKX3.1 protein expression at 5 uM after 24 hrs by immunoblot analysis
T1 sequence (whole entry): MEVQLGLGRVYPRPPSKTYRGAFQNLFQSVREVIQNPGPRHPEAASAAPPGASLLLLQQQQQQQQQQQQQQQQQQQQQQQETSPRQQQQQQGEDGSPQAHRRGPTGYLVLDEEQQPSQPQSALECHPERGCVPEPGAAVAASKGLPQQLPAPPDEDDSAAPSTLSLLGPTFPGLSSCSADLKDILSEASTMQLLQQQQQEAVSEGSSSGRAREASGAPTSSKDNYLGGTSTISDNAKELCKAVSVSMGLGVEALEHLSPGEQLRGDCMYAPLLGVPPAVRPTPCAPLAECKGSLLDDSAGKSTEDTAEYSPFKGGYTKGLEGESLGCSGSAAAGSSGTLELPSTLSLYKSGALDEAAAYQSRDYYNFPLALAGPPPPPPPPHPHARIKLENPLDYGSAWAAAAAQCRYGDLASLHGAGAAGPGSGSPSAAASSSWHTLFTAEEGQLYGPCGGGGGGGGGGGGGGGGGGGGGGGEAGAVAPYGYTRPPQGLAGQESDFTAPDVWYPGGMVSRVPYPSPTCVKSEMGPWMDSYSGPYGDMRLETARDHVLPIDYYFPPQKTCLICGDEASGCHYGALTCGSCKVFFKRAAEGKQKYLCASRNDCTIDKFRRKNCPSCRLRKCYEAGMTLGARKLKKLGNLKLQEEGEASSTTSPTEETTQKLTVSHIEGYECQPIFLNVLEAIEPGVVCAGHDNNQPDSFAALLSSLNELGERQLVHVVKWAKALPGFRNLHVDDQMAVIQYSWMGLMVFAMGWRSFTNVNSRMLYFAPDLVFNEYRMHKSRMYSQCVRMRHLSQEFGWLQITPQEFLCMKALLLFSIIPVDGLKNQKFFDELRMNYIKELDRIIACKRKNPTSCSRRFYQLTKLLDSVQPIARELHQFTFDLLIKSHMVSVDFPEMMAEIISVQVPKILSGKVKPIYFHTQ

[7] = molecular target: T1, Androgen receptor (Homo sapiens); assay: Inhibition of AR transcriptional activity in AR-positive human 22Rv1 cells harboring ARE14 construct assessed as decrease in PSA protein expression at 5 uM after 24 hrs by immunoblot analysis
CWR22R [8] = assay: Antiproliferative activity against AR-positive human 22Rv1 cells harboring ARE14 construct assessed as growth inhibition after 24 hrs by resazurin dye based fluorescence assay; assay type: functional; settings: 22Rv1, 24 h
BJ = assay: Antiproliferative activity against human BJ cells assessed as growth inhibition after 24 hrs by resazurin dye based fluorescence assay; assay type: functional
CWR22R [9] = assay: Effect on AR-V7 protein expression in AR-positive human 22Rv1 cells harboring ARE14 construct at 5 uM after 24 hrs by immunoblot analysis; assay type: functional, cell-based

| Compound | GI50 (LNCaP C4-2 [2]) [µM] | GI50 (VCaP [3]) [µM] | GI50 (PC-3) [µM] | NKX3.1 protein downregulation (active/not active) [6] | PSA protein decrease (active/not active) [7] | GI50 (CWR22R [1]) [µM] | viability at 40 µM (LNCaP C4-2 [4]) [%] | viability at 40 µM (VCaP [5]) [%] | GI50 (CWR22R [8]) [µM] | GI50 (BJ) [µM] | Activity (CWR22R [9]) |
| --- | --- | --- | --- | --- | --- | --- | --- | --- | --- | --- | --- |
| C[C@]12CC[C@H](O)CC1=CC[C@@H]1[C@@H]2CC[C@]2(C)C(n3cnc4ccccc43)=CC[C@@H]12 [GALETERONE] | > 40 | > 40 | 37.7 |  |  | 37.8 | 74.3 | 57.2 |  |  |  |
| CC(=O)O[C@H]1CC[C@@]2(C)C(=CC[C@H]3[C@@H]4C[C@@H](Nc5nc6ccccc6s5)[C@H](C(C)=O)[C@@]4(C)CC[C@@H]32)C1 | 34.1 | > 50 | > 50 | inactive | inactive | 13.2 |  |  | > 50 | > 50 | inactive |
| C[C@]12CC[C@H](O)CC1=CC[C@@H]1[C@@H]2CC[C@]2(C)/C(=N/n3cnc4ccccc43)CC[C@@H]12 | > 50 | > 50 | 11.5 | inactive | inactive | > 50 |  |  | > 50 | > 50 | inactive |
| CC(=O)O[C@H]1CC[C@@]2(C)C(=CC[C@@H]3[C@@H]2CC[C@]2(C)c4c(C)nc5nc6cc(Cl)ccc6n5c4C[C@@H]32)C1 | > 50 | > 50 | > 50 | inactive | inactive | > 50 |  |  | > 50 | > 50 | inactive |
| CC(=O)O[C@H]1CC[C@@]2(C)C(=CC[C@@H]3[C@@H]2CC[C@]2(C)c4c(C)nc5nc6cc(C)c(C)cc6n5c4C[C@@H]32)C1 | 36.5 | > 50 | > 50 | inactive | inactive | 40 |  |  | > 50 | > 50 | inactive |
| CC(=O)O[C@H]1CC[C@@]2(C)C(=CC[C@@H]3[C@@H]2CC[C@@]2(C)[C@H]3C[C@@H]3C(=O)[C@@]2(C)Nc2nc4cc(Cl)ccc4n23)C1 | > 50 |  | > 50 |  |  | > 50 |  |  |  |  |  |
| CC(=O)O[C@H]1CC[C@@]2(C)C(=CC[C@@H]3[C@@H]2CC[C@@]2(C)[C@H]3C[C@@H]3C(=O)[C@@]2(C)Nc2nc4ccc(Cl)cc4n23)C1 | > 50 |  | > 50 |  |  | > 50 |  |  |  |  |  |
| CC(=O)O[C@H]1CC[C@@]2(C)C(=CC[C@@H]3[C@@H]2CC[C@]2(C)c4c(C)nc5nc6ccc(Cl)cc6n5c4C[C@@H]32)C1 | 24.4 | > 50 | > 50 | inactive | inactive | 29.9 |  |  | > 50 | 50 | inactive |
| CC(=O)O[C@H]1CC[C@@]2(C)C(=CC[C@@H]3[C@@H]2CC[C@@]2(C)[C@H]3C[C@@H]3C(=O)[C@@]2(C)Nc2nc4cc(C)c(C)cc4n23)C1 | > 50 | > 50 | > 50 | inactive | inactive | 7.4 |  |  | > 50 | > 50 | inactive |
| COc1ccc2c(C)c3c(nc2n1)C[C@H]1[C@@H]2CC=C4C[C@@H](O)CC[C@]4(C)[C@H]2CC[C@]31C | 1.1 | > 50 | > 50 | Active | Active | 4.3 |  |  | > 50 | > 50 | inactive |

Second part, led by results:

| GI50 (LNCaP C4-2 [2]) [µM] | GI50 (VCaP [3]) [µM] | GI50 (PC-3) [µM] | NKX3.1 protein downregulation (active/not active) [6] | PSA protein decrease (active/not active) [7] | Compound | GI50 (CWR22R [1]) [µM] | viability at 40 µM (LNCaP C4-2 [4]) [%] | viability at 40 µM (VCaP [5]) [%] | GI50 (CWR22R [8]) [µM] | GI50 (BJ) [µM] | Activity (CWR22R [9]) |
| --- | --- | --- | --- | --- | --- | --- | --- | --- | --- | --- | --- |
| 22.5 | > 50 | > 50 | inactive | inactive | CC(=O)O[C@H]1CC[C@@]2(C)C(=CC[C@@H]3[C@@H]2CC[C@]2(C)c4c(C)nc5nc6ccccc6n5c4C[C@@H]32)C1 | 7.2 |  |  | > 50 | 44.9 | inactive |
| > 50 | > 50 | > 50 | inactive | inactive | CC(=O)O[C@H]1CC[C@@]2(C)C(=CC[C@@H]3[C@@H]2CC[C@]2(C)c4c(C)nc5nccn5c4C[C@@H]32)C1 | 26.3 |  |  | > 50 | > 50 | inactive |
| > 50 | > 50 | > 50 | inactive | inactive | CC(=O)O[C@H]1CC[C@@]2(C)C(=CC[C@@H]3[C@@H]2CC[C@]2(C)c4c(C)nc5c(c4C[C@@H]32)c2ccccc2n5C)C1 | > 50 |  |  | > 50 | > 50 | inactive |
| 11.9 | 20.3 | 29.5 | inactive | inactive | CC(=O)O[C@H]1CC[C@@]2(C)C(=CC[C@H]3[C@@H]4C[C@@H](Nc5nc6ccccc6[nH]5)[C@@H](C(C)=O)[C@@]4(C)CC[C@@H]32)C1 | 6.2 |  |  | > 50 | 48.3 | inactive |
| 18 | > 50 | > 50 | inactive | inactive | CC(=O)O[C@H]1CC[C@@]2(C)C(=CC[C@@H]3[C@@H]2CC[C@@]2(C)[C@H]3C[C@@H]3C(=O)[C@@]2(C)Nc2nc4ccccc4n23)C1 | 5.4 |  |  | > 50 | > 50 | inactive |
| 12.7 | 20.7 | 7.8 | Active |  | Cc1nc(N2CCc3ccccc3C2)nc2c1[C@@]1(C)CC[C@H]3[C@@H](CC=C4C[C@@H](O)CC[C@@]43C)[C@@H]1C2 | 12.4 |  |  | > 50 | 22.5 | inactive |
